According to US11529335B2, “Compositions and methods for treating cancer” (UNIVERSITY OF IOWA RESEARCH FOUNDATION, priority 2020, dated 2022):

What was measured:
[1] = tested on: A375 xenografts; test: A375 xenografts in athymic nu/nu mice: tumor growth, response, survival, body weight; type: in vivo
Protocol: (§1) 2-Mercaptoethanol is a reducing agent that leads to reduction of disulphide bonds to produce thiols. […] The effect of eliminating GSH in vivo was tested by treating mice (Athymic nu/nu) bearing A375 xenografts with rodent diet (AIN-76A) containing PLX4720 ([…], 416 mg/kg of diet) alone and in combination with BSO (15 mM in drinking water). […] Tumor xenografts in mice treated with the AIN-76 diet mixed with PLX4720 were responsive initially, but approximately 80% of these tumors acquired resistance to BRAFi treatment alone within 140 days (i.e., 20% complete responses; FIG. 2). On the contrary, the combination of BSO with PLX4720 produced nearly 90% complete and durable tumor responses (FIG. 4). […] Tumor progression was defined as a 50% increase (approximately a two standard deviation increase) in tumor volume from study initiation.
Female athymic nu/nu mice (age six weeks) were purchased from Envigo (previously Harlan Laboratories) and housed in the Animal Care Facility at The University of Iowa (Iowa City, Iowa). All procedures were approved by The University of Iowa Institutional Animal Care and Use Committee. All mice were naïve to treatments at the time of xenograft. For each xenograft, 1-3×10^6 cells (451LuBR and A375) were implanted subcutaneously in a 1:1 suspension of Matrigel (Corning) and PBS (flank) using a 27-gauge needle. For all in vivo studies, the mice were randomly assigned to experimental groups post-implant. Animals developed tumors within 7-10 days post-implant. Initiation of treatments was standardized to the time that tumor volume ([(longest length)×(smallest length^2)]/2) reached 80-100 mm^3.
The dose and mode of delivery for PBA was determined by analyzing the pharmacokinetics C-14 labeled PBA in mice (FIG. 5). These drugs were administered alone and in combination depending on the experimental group. The mice were monitored for their state of health every day. Tumor volume and animal weights were measured twice per week. Mice were euthanized when the observed state of health reached the endpoint according to the approved IACUC protocol or when the tumor volume reached 1500 mm^3.
Statistics was conducted using the tumor sizes (mm^3) that were obtained periodically throughout the experiments, resulting in repeated measurements for each mouse. Linear mixed effects regression models were used to estimate and compare treatment group-specific tumor growth curves. Pairwise comparisons were performed to identify treatment group differences in the growth curves. The Kaplan-Meier method was used to estimate the survival curves, and group comparisons were made using the log rank test. Mice who developed ulcerations were censored at day of euthanasia. […]

[2] = tested on: GSH in A375 xenograft tumor samples; test: GSH concentrations in tumor samples from treated mice; type: in vivo, mice (Athymic nu/nu); conditions: mice treated with BSO, 15 mM in drinking water
Protocol: as §1
Female athymic nu/nu mice (age six weeks) were purchased from Envigo (previously Harlan Laboratories) and housed in the Animal Care Facility at The University of Iowa (Iowa City, Iowa). All procedures were approved by The University of Iowa Institutional Animal Care and Use Committee. All mice were naïve to treatments at the time of xenograft. For each xenograft, 1-3×10^6 cells (451LuBR and A375) were implanted subcutaneously in a 1:1 suspension of Matrigel (Corning) and PBS (flank) using a 27-gauge needle. […]

Structure (SMILES)	tumor growth rate versus untreated controls ([1]; BSO alone, 15 mM in drinking water, A375 xenografts)	GSH concentrations in tumor samples vs controls [2]	complete (and durable) tumor responses ([1]; A375 xenografts, PLX4720 416 mg/kg of diet, alone or with BSO 15 mM in drinking water)	time within which tumor xenografts acquire resistance ([1]; BRAFi treatment alone)	tumors that acquired resistance to BRAFi treatment alone ([1]; within 140 days, PLX4720 416 mg/kg of AIN-76A diet)
CCCCS(=N)(=O)CCC(N)C(=O)O (centres unmarked) [BSO, buthionine sulfoximine]	No significant difference	significantly lower	–	–	–
CCCS(=O)(=O)Nc1ccc(F)c(C(=O)c2c[nH]c3ncc(Cl)cc23)c1F [PLX4720]	–	–	20%	≤ 140 days	approximately 80%
